Laboratory results from patent publication US9796719B2, “Compounds and pharmaceutical compositions thereof for the treatment of inflammatory disorders” (GALAPAGOS NV, priority 2013, dated 2017).
Where a name gives a salt, the structure may show the parent alone.

Target: hENPP2 (UniProtKB/SwissProt Sequence ref Q13822) (Homo sapiens (Human), UniProt Q13822)
Assay: LPC hENPP2 assay (choline release, LPC as substrate)
Format: biochemical
Method: The principle of the assay consists in quantifying the released choline with an enzymatic method using choline oxidase and peroxidase. Choline oxydation by choline oxydase releases betaine and peroxide. The latter is quantified in presence of HRP that converts the peroxide detection agent TOOS and 4-aminoantipyrine into quinoneimine dye. The appearance of quinoneimine dye is measured spectrophotometrically at 555 nm and is proportional to the amount of choline released by ENPP2. Inhibition of ENPP2 will result in a decrease of the signal.
The reaction is terminated and choline quantified by the addition of a 25 μL of a mixture containing 0.6 U/mL of choline oxidase, 0.6 U/mL of peroxydase, 1.8 mM TOOS, 1.2 mM amino-antipyrine, 20 mM EGTA (stop-developer solution) diluted in the buffer described above. […] is read on the Envision after an incubation of 30 min at room temperature (Excitation 555 nm, excitation light=70%).

| Compound | IC50 [µM] |
| --- | --- |
| CCc1nc2cnc(N3CCNCC3)cn2c1N(C)c1nc(-c2ccc(F)cc2)c(C#N)s1 [Compound 1, 2-((2-ethyl-6-(piperazin-1-yl)imidazo[1,2-a]pyrazin-3-yl)(methyl)amino)-4-(4-fluorophenyl)thiazole-5-carbonitrile] | > 1 |
| CCc1nc2ccc(N3CCN(C4COC4)CC3)nn2c1N(C)c1nc(-c2ccc(F)cc2)cs1 [Compound 38, N-(2-ethyl-6-(4-(oxetan-3-yl)piperazin-1-yl)imidazo[1,2-b]pyridazin-3-yl)-4-(4-fluorophenyl)-N-methylthiazol-2-amine] | > 1 |
| CCc1nc2ccc(N3CCN(S(C)(=O)=O)[C@H](COC)C3)nn2c1N(C)c1nc(-c2ccc(F)cc2)cs1 [Compound 62, (S)—N-(2-ethyl-6-(3-(methoxymethyl)-4-(methylsulfonyl)piperazin-1-yl)imidazo[1,2-b]pyridazin-3-yl)-4-(4-fluorophenyl)-N-methylthiazol-2-amine] | > 1 |
| CCc1nc2ccc(N3CCN4C(=O)COC[C@@H]4C3)nn2c1N(C)c1nc(-c2ccc(F)cc2)cs1 [Compound 66, (S)-8-(2-ethyl-3-((4-(4-fluorophenyl)thiazol-2-yl)(methyl)amino)imidazo[1,2-b]pyridazin-6-yl)hexahydropyrazino[2,1-c][1,4]oxazin-4(1H)-one] | > 1 |
| CCc1nc2ccc(N3CCC(NC(=O)N4CCCC4)CC3)nn2c1N(C)c1nc(-c2ccc(F)cc2)cs1 [Compound 89, N-(1-(2-ethyl-3-((4-(4-fluorophenyl)thiazol-2-yl)(methyl)amino)imidazo[1,2-b]pyridazin-6-yl)piperidin-4-yl)pyrrolidine-1-carboxamide] | 0.5 to 1 |
| CCc1nc2ccc(N3CCC(OC=O)C3)nn2c1N(C)c1nc(-c2ccc(F)cc2)cs1 (stereo not shown) [Compound 130, 1-(2-ethyl-3-((4-(4-fluorophenyl)thiazol-2-yl)(methyl)amino)imidazo[1,2-b]pyridazin-6-yl)pyrrolidin-3-yl formate] | > 1 |
| CCc1nc2ccc(N3CCC(=O)C3)nn2c1N(C)c1nc(-c2ccc(F)cc2)c(Cl)s1 [Compound 132, 1-(3-((5-chloro-4-(4-fluorophenyl)thiazol-2-yl)(methyl)amino)-2-ethylimidazo[1,2-b]pyridazin-6-yl)pyrrolidin-3-one] | > 1 |
| CCc1nc2ccc(N3CCC(NC(=O)CO)C3)nn2c1N(C)c1nc(-c2ccc(F)cc2)cs1 (stereo not shown) [Compound 136, N-(1-(2-ethyl-3-((4-(4-fluorophenyl)thiazol-2-yl)(methyl)amino)imidazo[1,2-b]pyridazin-6-yl)pyrrolidin-3-yl)-2-hydroxyacetamide] | > 1 |
| CCc1nc2ccc(N3CCC[C@H]3C(=O)O)nn2c1N(C)c1nc(-c2ccc(F)cc2)cs1 [Compound 138, (S)-1-(2-ethyl-3-((4-(4-fluorophenyl)thiazol-2-yl)(methyl)amino)imidazo[1,2-b]pyridazin-6-yl)pyrrolidine-2-carboxylic acid] | > 1 |
| CCc1nc2ccc(N3CCC(CO)C3)nn2c1N(C)c1nc(-c2ccc(F)cc2)c(CO)s1 (stereo not shown) [Compound 144, (1-(2-ethyl-3-((4-(4-fluorophenyl)-5-(hydroxymethyl)thiazol-2-yl)(methyl)amino)imidazo[, 2-b]pyridazin-6-yl)pyrrolidin-3-yl)methanol] | 0.5 to 1 |
| CCc1nc2ccc(N3CCC(N4C[C@@H](C)O[C@@H](C)C4)C3)nn2c1N(C)c1nc(-c2ccc(F)cc2)c(C#N)s1 (stereo partly drawn) [Compound 178, 2-((6-(3-((2S,6R)-2,6-dimethylmorpholino)pyrrolidin-1-yl)-2-ethylimidazo[1,2-b]pyridazin-3-yl)(methyl)amino)-4-(4-fluorophenyl)thiazole-5-carbonitrile] | 0.5 to 1 |
| CCc1nc2ccc(C3CCNCC3)nn2c1N(C)c1nc(-c2ccc(F)cc2C#N)ns1 [Compound 219, 2-(5-((2-ethyl-6-(piperidin-4-yl)imidazo[1,2-b]pyridazin-3-yl)(methyl)amino)-1,2,4-thiadiazol-3-yl)-5-fluorobenzonitrile] | > 1 |
| CCc1nc2cnc(N3CCN(CC(=O)N4CC(F)(F)C4)CC3)cn2c1N(C)c1nc(-c2ccc(F)cc2)c(C#N)s1 [Cpd 3, 2-((6-(4-(2-(3,3-difluoroazetidin-1-yl)-2-oxoethyl)piperazin-1-yl)-2-ethylimidazo[1,2-a]pyrazin-3-yl)(methyl)amino)-4-(4-fluorophenyl) thiazole-5-carbonitrile] | > 1 |
| CCc1nc2cnc(N3CCN(CC(=O)N4CCC4)CC3)cn2c1N(C)c1nc(-c2ccc(F)cc2)cs1 [Cpd 13, 1-(azetidin-1-yl)-2-(4-(2-ethyl-3-((4-(4-fluorophenyl)thiazol-2-yl)(methyl)amino)imidazo[1,2-a]pyrazin-6-yl)piperazin-1-yl)ethanone] | > 1 |
| CCc1nc2cnc(N3CCNCC3)cn2c1N(C)c1nc(-c2ccc(F)cc2C#N)cs1 [Cpd 15, 2-(2-((2-ethyl-6-(piperazin-1-yl)imidazo[1,2-a]pyrazin-3-yl)(methyl)amino)thiazol-4-yl)-5-fluorobenzonitrile] | > 1 |
| CCc1nc2cnc(N3CCN(CC(=O)N4CC(O)C4)CC3)cn2c1N(C)c1cccc(-c2ccc(F)cc2C#N)n1 [Cpd 17, 2-(6-((2-ethyl-6-(4-(2-(3-hydroxyazetidin-1-yl)-2-oxoethyl)piperazin-1-yl)imidazo[1,2-a]pyrazin-3-yl)(methyl)amino)pyridin-2-yl)-5-fluorobenzonitrile] | > 1 |
| CCc1nc2cnc(N3CCN(CC(=O)N4CC(O)C4)CC3)cn2c1N(C)c1nccc(-c2ccc(F)cc2C#N)n1 [Cpd 18, 2-(2-((2-ethyl-6-(4-(2-(3-hydroxyazetidin-1-yl)-2-oxoethyl)piperazin-1-yl)imidazo[1,2-a]pyrazin-3-yl)(methyl)amino)pyrimidin-4-yl)-5-fluorobenzonitrile] | > 1 |
| CCc1nc2cnc(C3=CCN(S(C)(=O)=O)CC3)cn2c1N(C)c1nc(-c2ccc(F)cc2)c(C#N)s1 [Cpd 20, 2-((2-ethyl-6-(1-(methylsulfonyl)-1,2,3,6-tetrahydropyridin-4-yl)imidazo[1,2-a]pyrazin-3-yl)(methyl)amino)-4-(4-fluorophenyl) thiazole-5-carbonitrile] | > 1 |
| CCc1nc2ccc(N3CCN(CC(=O)N4CCCC4C)CC3)nn2c1N(C)c1nc(-c2ccc(F)cc2)cs1 (stereo not shown) [Cpd 28, 2-(4-(2-ethyl-3-((4-(4-fluorophenyl)thiazol-2-yl)(methyl)amino)imidazo[1,2-b]pyridazin-6-yl)piperazin-1-yl)-1-(2-methylpyrrolidin-1-yl)ethanone] | 0.1 to 0.5 |
| CCc1nc2ccc(N3CCN(CC(=O)NC)CC3)nn2c1N(C)c1nc(-c2ccc(F)cc2)cs1 [Cpd 30] | 0.5 to 1 |
| CCc1nc2ccc(N3CCN(CC(=O)N4CCC(F)(F)C4)CC3)nn2c1N(C)c1nc(-c2ccc(F)cc2)cs1 [Cpd 31, 1-(3,3-difluoropyrrolidin-l-yl)-2-(4-(2-ethyl-3-((4-(4-fluorophenyl)thiazol-2-yl)(methyl)amino)imidazo[1,2-b]pyridazin-6-yl)piperazin-l-yl)ethanone] | 0.1 to 0.5 |
| CCc1nc2ccc(N3CCN(CC(=O)N4C(C)CCC4C)CC3)nn2c1N(C)c1nc(-c2ccc(F)cc2)cs1 (stereo not drawn) [Cpd 32, 1-(2,5-dimethylpyrrolidin-l-yl)-2-(4-(2-ethyl-3-((4-(4-fluorophenyl)thiazol-2-yl)(methyl)amino)imidazo[1,2-b]pyridazin-6-yl)piperazin-1-yl)ethanone] | > 1 |
| CCc1nc2ccc(N3CCN(CC(=O)NCCO)CC3)nn2c1N(C)c1nc(-c2ccc(F)cc2)cs1 [Cpd 35, 2-(4-(2-ethyl-3-((4-(4-fluorophenyl)thiazol-2-yl)(methyl)amino)imidazo[1,2-b]pyridazin-6-yl)piperazin-1-yl)-N-(2-hydroxyethyl) acetamide] | > 1 |
| CCc1nc2ccc(N3CCN(CC(=O)N4CCC4)CC3)nn2c1N(C)c1nc(-c2ccc(F)cc2)cs1 [Cpd 36, 1-(azetidin-1-yl)-2-(4-(2-ethyl-3-((4-(4-fluorophenyl)thiazol-2-yl)(methyl)amino)imidazo[1,2-b]pyridazin-6-yl)piperazin-1-yl)ethanone] | 0.1 to 0.5 |
| CCc1nc2ccc(N3CCN(CC(=O)N(C)C(C)C)CC3)nn2c1N(C)c1nc(-c2ccc(F)cc2)cs1 [Cpd 37, 2-(4-(2-ethyl-3-((4-(4-fluorophenyl)thiazol-2-yl)(methyl)amino)imidazo[1,2-b]pyridazin-6-yl)piperazin-1-yl)-N-isopropyl-N-methylacetamide] | 0.1 to 0.5 |
| CCc1nc2ccc(N3CCN(C4CCOCC4)CC3)nn2c1N(C)c1nc(-c2ccc(F)cc2)cs1 [Cpd 39, N-(2-ethyl-6-(4-(tetrahydro-2H-pyran-4-yl)piperazin-1-yl)imidazo[1,2-b]pyridazin-3-yl)-4-(4-fluorophenyl)-N-methylthiazol-2-amine] | > 1 |
| CCc1nc2ccc(N3CCN(CC4CNC(=O)O4)CC3)nn2c1N(C)c1nc(-c2ccc(F)cc2)c(CO)s1 (stereo not shown) [Cpd 41, 5-((4-(2-ethyl-3-((4-(4-fluorophenyl)-5-(hydroxymethyl)thiazol-2-yl)(methyl)amino)imidazo[1,2-b]pyridazin-6-yl)piperazin-1-yl)methyl) oxazolidin-2-one] | 0.5 to 1 |
| CCc1nc2ccc(N3CCN(CCCO)CC3)nn2c1N(C)c1nc(-c2ccc(F)cc2)c(CO)s1 [Cpd 50, 3-(4-(2-ethyl-3-((4-(4-fluorophenyl)-5-(hydroxymethyl)thiazol-2-yl)(methyl)amino)imidazo[1,2-b]pyridazin-6-yl)piperazin-1-yl)propan-1-ol] | > 1 |
